Holding throughout (experiment): relative viability (nuclei count vs DMSO), 5 days (fraction); higher = more cells survive
Compound in the experiment “AZD5582 + Linsitinib”: C[C@@H](C(=O)N[C@@H](C1CCCCC1)C(=O)N2CCC[C@H]2C(=O)N[C@@H]3[C@@H](CC4=CC=CC=C34)OCC#CC#CCO[C@@H]5CC6=CC=CC=C6[C@@H]5NC(=O)[C@@H]7CCCN7C(=O)[C@H](C8CCCCC8)NC(=O)[C@H](C)NC)NC [AZD5582] + C[C@]1(O)C[C@@H](c2nc(-c3ccc4ccc(-c5ccccc5)nc4c3)c3c(N)nccn32)C1 [Linsitinib] (partner 1 µM)
The method, boiled down:
(§1)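 Medians of duplicate plates are given as relative viability. That measure is the nuclei count in treated wells divided by the count in vehicle wells. Counts were taken on 4× images of lung cancer cell lines in 1536-well plates, 5 days after pin-tool dosing the day after seeding with one drug alone or a fixed anchor-drug dose plus five library-drug doses (not always all listed) in √10 steps.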

Compound in experiment [1]: Cn1nnc2c(C(N)=O)ncn2c1=O [Temozolomide] + CC(C)C[C@H](NC(=O)[C@H](Cc1ccccc1)NC(=O)c1cnccn1)B(O)O [Bortezomib] (partner 0.002 µM)
Put shortly:
as §1

Compound in the experiment “AZD5582 + Foretinib”: C[C@@H](C(=O)N[C@@H](C1CCCCC1)C(=O)N2CCC[C@H]2C(=O)N[C@@H]3[C@@H](CC4=CC=CC=C34)OCC#CC#CCO[C@@H]5CC6=CC=CC=C6[C@@H]5NC(=O)[C@@H]7CCCN7C(=O)[C@H](C8CCCCC8)NC(=O)[C@H](C)NC)NC [AZD5582] + COc1cc2c(Oc3ccc(NC(=O)C4(C(=O)Nc5ccc(F)cc5)CC4)cc3F)ccnc2cc1OCCCN1CCOCC1 [Foretinib] (partner 0.25 µM)
The method, boiled down:
as §1

Compound in experiment [2]: Cn1nnc2c(C(N)=O)ncn2c1=O [Temozolomide] + CS(=O)(=O)N1CCN(Cc2cc3nc(-c4cccc5[nH]ncc45)nc(N4CCOCC4)c3s2)CC1 [Pictilisib] (partner 1 µM)
Put shortly:
as §1

Compound in the experiment “AZD5582 + Alpelisib”: C[C@@H](C(=O)N[C@@H](C1CCCCC1)C(=O)N2CCC[C@H]2C(=O)N[C@@H]3[C@@H](CC4=CC=CC=C34)OCC#CC#CCO[C@@H]5CC6=CC=CC=C6[C@@H]5NC(=O)[C@@H]7CCCN7C(=O)[C@H](C8CCCCC8)NC(=O)[C@H](C)NC)NC [AZD5582] + Cc1nc(NC(=O)N2CCC[C@H]2C(N)=O)sc1-c1ccnc(C(C)(C)C(F)(F)F)c1 [Alpelisib] (partner 2 µM)
Put shortly:
as §1

Take NCI-H1703: the relative viability was found to be 0.666 with AZD5582 + Linsitinib (first compound 0.005 µM); 1.02 with AZD5582 + Linsitinib (first compound 0.01581 µM); 0.44 with AZD5582 + Linsitinib (first compound 0.05 µM); 0.29 in experiment [1] (first compound 0.2 µM); 0.471 in experiment [1] (first compound 0.6325 µM); 0.365 in experiment [1] (first compound 2 µM). In addition, the relative viability in experiment [1] (first compound 6.325 µM) is 0.241; in experiment [1] (first compound 20 µM) it was 0.284; with AZD5582 + Foretinib (first compound 0.005 µM), 0.412; with AZD5582 + Foretinib (first compound 0.01581 µM) it was 0.376; with AZD5582 + Foretinib (first compound 0.05 µM) it was 0.372; in experiment [2] (first compound 0.2 µM) it was 0.249. In addition, the relative viability is 0.255 in experiment [2] (first compound 0.6325 µM); 0.301 in experiment [2] (first compound 2 µM); 0.272 in experiment [2] (first compound 20 µM); 0.208 in the experiment with AZD5582 + Alpelisib (first compound 0.001581 µM); 0.323 in the experiment with AZD5582 + Alpelisib (first compound 0.005 µM); 0.358 in the experiment with AZD5582 + Alpelisib (first compound 0.01581 µM). Besides, the relative viability with AZD5582 + Alpelisib (first compound 0.05 µM) was found to be 0.255.

For the origin of these results see the supplement of paper PMC10307832.
